# Data from ChEMBL document CHEMBL3885881, “DrugMatrix”.
# Species: Rattus norvegicus
# Experiment: DrugMatrix - Regimen: Daily Repeat
# Type: toxicity, organism-based, Sprague-Dawley
# Design: regimen Daily Repeat, gender Male, age 6-8 weeks
# Conditions: in vivo, po, route oral GAVAGE, vehicle 100 % WATER; for ABSOLUTE BASOPHIL / ABSOLUTE EOSINOPHIL / ABSOLUTE LYMPHOCYTE / ABSOLUTE MONOCYTE / ABSOLUTE SEGMENTED NEUTROPHIL / BASOPHIL / EOSINOPHIL / ERYTHROCYTE COUNT / HEMATOCRIT / HEMOGLOBIN / LEUKOCYTE COUNT / LYMPHOCYTE / MEAN CORPUSCULAR HEMOGLOBIN / MEAN CORPUSCULAR HEMOGLOBIN CONCENTRATION / MEAN CORPUSCULAR VOLUME / MONOCYTE / NEUTROPHIL / NUCLEATED RED BLOOD CELLS / PLATELET COUNT: tissue Blood; for ALANINE AMINOTRANSFERASE / ALBUMIN / ALKALINE PHOSPHATASE / ASPARTATE AMINOTRANSFERASE / BLOOD UREA NITROGEN / CARBON DIOXIDE / CHLORIDE / CHOLESTEROL / CREATINE PHOSPHOKINASE / CREATININE / GLUCOSE / LACTATE DEHYDROGENASE / LIPASE / PHOSPHORUS / POTASSIUM / SODIUM / TOTAL BILIRUBIN / TOTAL PROTEIN / URIC ACID: tissue Plasma
# [1] = 4.5 mg/kg, 120 h, dose level Low, time 5 day
# [2] = 45 mg/kg, 72 h, dose level High, time 3 day
# [3] = 45 mg/kg, 120 h, dose level High, time 5 day
compound,measurement,setting,value
NN [HYDRAZINE],ABSOLUTE BASOPHIL,[1],0 CELLS/uL
same,ABSOLUTE EOSINOPHIL,[1],61.33 CELLS/uL
same,ABSOLUTE LYMPHOCYTE,[1],9152.67 CELLS/uL
same,ABSOLUTE MONOCYTE,[1],216 CELLS/uL
same,ABSOLUTE SEGMENTED NEUTROPHIL,[1],1236.67 CELLS/uL
same,BASOPHIL,[1],0%
same,EOSINOPHIL,[1],0.67%
same,ERYTHROCYTE COUNT,[1],5.22 x10E6/uL
same,HEMATOCRIT,[1],32.97%
same,HEMOGLOBIN,[1],13.03 G/DL
same,LEUKOCYTE COUNT,[1],10.67 x10E3/uL
same,LYMPHOCYTE,[1],85.33%
same,MEAN CORPUSCULAR HEMOGLOBIN,[1],25 pg
same,MEAN CORPUSCULAR HEMOGLOBIN CONCENTRATION,[1],39.57 G/DL
same,MEAN CORPUSCULAR VOLUME,[1],63.23 fL
same,MONOCYTE,[1],2%
same,NEUTROPHIL,[1],12%
same,NUCLEATED RED BLOOD CELLS,[1],0 /100WBC
same,PLATELET COUNT,[1],1367.67 x10E3/uL
same,ALANINE AMINOTRANSFERASE,[1],34.33 u/L
same,ALBUMIN,[1],4.27 G/DL
same,ALKALINE PHOSPHATASE,[1],357 u/L
same,ASPARTATE AMINOTRANSFERASE,[1],88.33 u/L
same,BLOOD UREA NITROGEN,[1],18.33 mg/dL
same,CARBON DIOXIDE,[1],28 mmol/L
same,CHLORIDE,[1],100 MEQ/L
same,CHOLESTEROL,[1],80 mg/dL
same,CREATINE PHOSPHOKINASE,[1],469 u/L
same,CREATININE,[1],0.17 mg/dL
same,GLUCOSE,[1],135.67 mg/dL
same,LACTATE DEHYDROGENASE,[1],538.33 u/L
same,LIPASE,[1],11 u/L
same,PHOSPHORUS,[1],11.77 mg/dL
same,POTASSIUM,[1],5.73 MEQ/L
same,SODIUM,[1],142.13 MEQ/L
same,TOTAL BILIRUBIN,[1],0.13 mg/dL
same,TOTAL PROTEIN,[1],5.87 G/DL
same,URIC ACID,[1],1.37 mg/dL
same,ABSOLUTE BASOPHIL,[2],0 CELLS/uL
same,ABSOLUTE EOSINOPHIL,[2],101.33 CELLS/uL
same,ABSOLUTE LYMPHOCYTE,[2],9888 CELLS/uL
same,ABSOLUTE MONOCYTE,[2],143.33 CELLS/uL
same,ABSOLUTE SEGMENTED NEUTROPHIL,[2],634 CELLS/uL
same,BASOPHIL,[2],0%
same,EOSINOPHIL,[2],1%
same,ERYTHROCYTE COUNT,[2],5.85 x10E6/uL
same,HEMATOCRIT,[2],35.23%
same,HEMOGLOBIN,[2],13.87 G/DL
same,LEUKOCYTE COUNT,[2],10.77 x10E3/uL
same,LYMPHOCYTE,[2],91.67%
same,MEAN CORPUSCULAR HEMOGLOBIN,[2],23.77 pg
same,MEAN CORPUSCULAR HEMOGLOBIN CONCENTRATION,[2],39.43 G/DL
same,MEAN CORPUSCULAR VOLUME,[2],60.27 fL
same,MONOCYTE,[2],1.33%
same,NEUTROPHIL,[2],6%
same,NUCLEATED RED BLOOD CELLS,[2],0.33 /100WBC
same,PLATELET COUNT,[2],1202 x10E3/uL
same,ALANINE AMINOTRANSFERASE,[2],14 u/L
same,ALBUMIN,[2],4.07 G/DL
same,ALKALINE PHOSPHATASE,[2],403.33 u/L
same,ASPARTATE AMINOTRANSFERASE,[2],77.67 u/L
same,BLOOD UREA NITROGEN,[2],17.67 mg/dL
same,CARBON DIOXIDE,[2],31.33 mmol/L
same,CHLORIDE,[2],98.33 MEQ/L
same,CHOLESTEROL,[2],44 mg/dL
same,CREATINE PHOSPHOKINASE,[2],676.33 u/L
same,CREATININE,[2],0.11 mg/dL
same,GLUCOSE,[2],133.33 mg/dL
same,LACTATE DEHYDROGENASE,[2],533 u/L
same,LIPASE,[2],11 u/L
same,PHOSPHORUS,[2],11.23 mg/dL
same,POTASSIUM,[2],6.63 MEQ/L
same,SODIUM,[2],138.67 MEQ/L
same,TOTAL BILIRUBIN,[2],0.13 mg/dL
same,TOTAL PROTEIN,[2],5.5 G/DL
same,URIC ACID,[2],1.6 mg/dL
same,ABSOLUTE BASOPHIL,[3],0 CELLS/uL
same,ABSOLUTE EOSINOPHIL,[3],63.33 CELLS/uL
same,ABSOLUTE LYMPHOCYTE,[3],8413.33 CELLS/uL
same,ABSOLUTE MONOCYTE,[3],93 CELLS/uL
same,ABSOLUTE SEGMENTED NEUTROPHIL,[3],730.33 CELLS/uL
same,BASOPHIL,[3],0%
same,EOSINOPHIL,[3],0.67%
same,ERYTHROCYTE COUNT,[3],5.35 x10E6/uL
same,HEMATOCRIT,[3],31.4%
same,HEMOGLOBIN,[3],12.23 G/DL
same,LEUKOCYTE COUNT,[3],9.3 x10E3/uL
same,LYMPHOCYTE,[3],90.67%
same,MEAN CORPUSCULAR HEMOGLOBIN,[3],22.9 pg
same,MEAN CORPUSCULAR HEMOGLOBIN CONCENTRATION,[3],38.97 G/DL
same,MEAN CORPUSCULAR VOLUME,[3],58.77 fL
same,MONOCYTE,[3],1%
same,NEUTROPHIL,[3],7.67%
same,NUCLEATED RED BLOOD CELLS,[3],0 /100WBC
same,PLATELET COUNT,[3],1463.33 x10E3/uL
same,ALANINE AMINOTRANSFERASE,[3],14.67 u/L
same,ALBUMIN,[3],4 G/DL
same,ALKALINE PHOSPHATASE,[3],346 u/L
same,ASPARTATE AMINOTRANSFERASE,[3],75.67 u/L
same,BLOOD UREA NITROGEN,[3],18.67 mg/dL
same,CARBON DIOXIDE,[3],25.33 mmol/L
same,CHLORIDE,[3],99 MEQ/L
same,CHOLESTEROL,[3],50.67 mg/dL
same,CREATINE PHOSPHOKINASE,[3],391.33 u/L
same,CREATININE,[3],0.11 mg/dL
same,GLUCOSE,[3],153.33 mg/dL
same,LACTATE DEHYDROGENASE,[3],326 u/L
same,LIPASE,[3],11.33 u/L
same,PHOSPHORUS,[3],11.23 mg/dL
same,POTASSIUM,[3],6.42 MEQ/L
same,SODIUM,[3],139.93 MEQ/L
same,TOTAL BILIRUBIN,[3],0.2 mg/dL
same,TOTAL PROTEIN,[3],5.37 G/DL
same,URIC ACID,[3],1.4 mg/dL
